Bounds are passed on as bounds.

The source of these data is patent US20220372099A1 (priority 2019, published 2022).

The nature of data set [1]: Phase I single dose study in healthy subjects. The format is in vivo, human. As to conditions: 62 healthy subjects. An excerpt:
Compound A is a hepcidin mimetic agent in clinical studies for multiple blood disorders.

Data set [2] concerns erythropoietic activity. The data set can be described thus: repeat-dose study, 13 weekly SC doses with 35-day recovery, limiting erythropoiesis. The format is in vivo, Cynomolgus monkeys. An excerpt:
A cohort of animals (4/sex/group) were sacrificed on Day 92 (Main), and the remaining animals (2/sex/group) were sacrificed on Day 120 following a 35-day recovery period (Recovery).

Data set [3] has as its system erythropoietic activity. Nature of the data set: repeat-dose study, 4 weekly SC doses with 28-day recovery, limiting erythropoiesis. The following applies: SC weekly x4.
For data set [4], the system named is Polycythemia vera. The data set can be described thus: Phase 2 study in patients with phlebotomy-requiring Polycythemia vera. As to conditions: 10-80 mg SC weekly.
Source text: Eligible patients were enrolled in the 28-week dose finding part of the Phase 2 trial. […] Body iron status was quantified by monitoring serum ferritin, serum iron, transferrin saturation (TSAT), mean corpuscular volume (MCV) and mean corpuscular hemoglobin (MCH).
Data set [5] is described as follows: plasma concentrations of Compound A in PV patients. The format is in vivo, human. As to conditions: SC doses of 10 mg to 80 mg, various times after dosing. The protocol: Plasma concentrations of Compound A were measured at various times after dosing of subcutaneous doses of 10 mg to 80 mg in PV patients. The concentrations increased in a dose-dependent manner and varied based on dose and time of sampling. Compound A concentrations ranged from below detectable (<2 ng/mL) to 866 ng/mL (FIGS. 17A and 17B).

Data set [6] relates to Polycythemia vera. As to conditions: through week 32 (portal vein thrombosis); 6 events with BAT; cited from earlier work.
Another data set relates to serum iron. The data set can be described thus: PK-PD experiment, serum iron (Cobas Iron2 colorimetric assay). It counts as in vivo, Cynomolgus monkeys. The following applies: 2.93 mg/kg SC. Here is the method: Iron content in plasma/serum was measured using a colorimetric assay on the Cobas c 111 according to instructions from the manufacturer of the assay (assay: IRON2: ACN 661).

Data set [7] deals with Polycythemia vera. The following applies: PV mice expressing the orthologous JAK2 mutation; cited from earlier work.

In the case of `CCCCCCCCCCCCCCCC(=O)N[C@@H](CCC(=O)NCCCC[C@@H]1NC(=O)[C@H]([C@@H](C)CC)NC(=O)[C@@H](NC(=O)[C@@H]2CCCN2C(=O)[C@H](Cc2ccccc2)NC(=O)[C@H](Cc2c[nH]cn2)NC(=O)[C@@H](NC(=O)[C@H](CC(=O)O)NC(=O)CC(C)C)[C@@H](C)O)CSSC[C@@H](C(=O)N[C@@H](CCCCN)C(N)=O)NC(=O)CNC(=O)[C@H](CCCCN)NC(=O)[C@H](CO)NC(=O)[C@H](CCCNC(=N)N)NC(=O)[C@@H]2CCCN2C(=O)[C@H](CCC(=O)O)NC(=O)[C@H](Cc2ccccc2)NC1=O)C(=O)O` [Compound A], the adverse events result in data set [1] is recorded as “without significant adverse events”. Moreover, in the data set with erythropoietic activity [2] (SC weekly x13), the “dose with hematopoietic hypercellularity in bone marrow, extramedullary hematopoiesis and hemosiderin deposition in liver and spleen” value is given as not below 2 mg/kg/dose; the “dose with increased organ weight (liver and spleen)” value was determined as 6 mg/kg/dose. Moreover, the “dose with increase in total bilirubin (tBili)” value in the data set with erythropoietic activity [2] (during the treatment period) is given as not below 2 mg/kg/day. The “dose with significantly elevated levels of platelets” value with erythropoietic activity [2] (male and female animals) worked out at 6 mg/kg/dose. For the same compound, in the data set with erythropoietic activity [3], the “dose causing pharmacology-mediated anemia (dose- and time-dependent decreases in Hct and Hgb)” value is not below 3 mg/kg/dose. For the same compound, in the data set on Polycythemia vera [4], the “grade of most of the injection site reactions” value is reported as 1-2 grade, the “leukocyte count over the course of treatment” value is recorded as “remained generally steady”, the “most frequent adverse events” value is reported as “injection site reaction (ISR) reported by three patients” and the “platelet counts over the course of treatment” value is “remained generally steady”. Besides, the tolerability entry with Polycythemia vera [4] is “well tolerated”. In addition, the “plasma concentrations of Compound A, ranged from below detectable (<2 ng/mL) up to” value in data set [5] is recorded as not above 866 ng/mL.
As for `N#CC[C@H](C1CCCC1)n1cc(-c2ncnc3[nH]ccc23)cn1` [ruxolitinib], in the data set on Polycythemia vera [6], the thromboembolic events is on record as 1 event.
For the compound “Isovaleric acid-DTHFPCIKF(K(PEG11-Palm))PRSK[Sar]CK-NH2 [Compound B]”, the “time of maximal serum iron reduction” value in the data set with serum iron is reported as “about 12 hour”. Besides, the “serum iron lower than the pre-dose levels (maximal reduction)” value with serum iron (about 12 hour post administration) stood at 12 fold.
In the case of “minihepcidin: hepcidin mimetic administered to PV mice in Casu et al., Blood 2016; not further defined (DTHFPICIF)”, in the data set with Polycythemia vera [7], the hematocrit entry is “normalizes hematocrit” and the splenomegaly entry is given as “significantly reduces splenomegaly”.
